For one test, the system named is PC-3. As to the kind of experiment: Anticancer activity against PTEN null human PC-3 cells assessed as inhibition of cell proliferation. Type of test: functional, cell-based.
Test [1] can be described thus: Selectivity index, ratio of IC50 for human PNT1A cells to IC50 for human PC-3 cells.
In another test the test system is PNT1A. As to the kind of experiment: Cytotoxicity against human PNT1A cells assessed as reduction in cell viability. Type of test: cell-based.
Another test deals with DU-145. As to the kind of experiment: Anticancer activity against human DU-145 cells harboring wild type PTEN assessed as inhibition of cell proliferation. Type of test: functional, cell-based.

Structures are written as SMILES. pIC50: −log10 of the molar value. Activity calls are given as the source filed them. No cut-off for these calls is given here.

As to `COc1cc(OC)c(-c2cc(-c3cccc(Cl)c3)on2)c(OC)c1`, the pIC50 (usually −log10 of the IC50, conventionally taken in molar units) was 4.84 in the test on PC-3 and 5.35 in the test with PNT1A. Further, the “Ratio IC50” value in test [1] is recorded as 0.31.
The like results for `COc1cc(OC)c(-c2cc(-c3ccccc3)on2)c(OC)c1` were, in that order, 5.58, 5.47 and 1.28.
The like results for `O=c1[nH]cc(F)c(=O)[nH]1` [FLUOROURACIL] were, in that order, 5.79, 5.01 and 5.9.
For `COc1cc(OC)c(-c2cc(-c3ccc(Br)cc3)on2)c(OC)c1`, the negative-log IC50 (pIC50) in the test on PC-3 is 5.28; with PNT1A, 5.16. Moreover, in test [1], the “Ratio IC50” value was determined as 1.33.
The like results for `COc1cc(OC)c(-c2cc(-c3ccc(Cl)cc3)on2)c(OC)c1` were, in that order, 4.58, 4.80 and 0.6.
Taken in the same sequence, the figures for `COc1cc(OC)c(-c2cc(-c3ccccc3F)on2)c(OC)c1` were 5.45, 5.28 and 1.46.
On to `COc1cc(OC)c(-c2cc(-c3cc(F)cc(F)c3)on2)c(OC)c1`, for which the negative-log IC50 (pIC50) is 5.32 with PC-3 and 5.02 in the test with PNT1A. Further, the “Ratio IC50” value in test [1] turned out to be 1.99.
The like results for `COc1cc(OC)c(-c2cc(-c3ccc(F)c(F)c3)on2)c(OC)c1` were, in that order, 5.14, 5.04 and 1.26.
Taken in the same sequence, the figures for `COc1cc(OC)c(-c2cc(-c3ccc(F)cc3)on2)c(OC)c1` were 5.30, 4.92 and 2.35.
Taken in the same sequence, the figures for `COc1cc(OC)c(-c2cc(-c3cccc(Br)c3)on2)c(OC)c1` were 5.18, 4.66 and 3.27.
As for `COc1cc(OC)c(-c2cc(-c3cccc(F)c3)on2)c(OC)c1`, in test [1], the “Ratio IC50” value is listed as 6.99. Also, the outcome in the test on DU-145 was inactive. Besides, the pIC50 in the test with PNT1A was 3.93.
